# Data published in patent US9632088B2, “Methods and compositions for gamma-secretase assay” (MEMORIAL SLOAN-KETTERING CANCER CENTER, priority 2010, dated 2017).
# How the values were obtained:
# [1] = target: T1, γ-secretase (Homo sapiens, UniProt P49768); test: Cell-based Notch cleavage assay, western blot with SM320, HEK293 cells transfected with N1-ΔE; conditions: 1 μM inhibitor, 48 hours
# T1 construct: endogenous in cells; host or cells: HEK293 cells transiently transfected with myc-tagged N1-ΔE (substrate only)
# Description: HEK293 cells were seeded in a 24-well plate and transfected with either truncated Notch1-ΔE construct (N1-ΔE) (gift from Dr. Raphael Kopan, Washington University School of Medicine, St. Louis, Mo.; (see Supplemental FIG. 1A of van Tetering et al., 2009, J. Biol. Chem., 284:31018-31027, for a diagram of N1-ΔE)) including cmyc (24), or empty pcDNA3.1 (−) (Invitrogen), using Fugene 6 transfection reagents (Roche). N1-ΔE includes the replete intracellular sequence, the transmembrane domain, and a truncated extracellular portion lacking LNR and the EGF repeat sequences (see Supplemental FIG. 1A of van Tetering et al., 2009, J. Biol. Chem., 284:31018-31027). […] The proteins were transferred to PVDF membrane (Millipore) using a semi-dry transfer emit (Bio-Rad) and analyzed by western blot with anti-myc antibody (prepared at Memorial Sloan-Kettering Cancer Center) and SM320 antibody.
# HEK 293 cells were transiently transfected with truncated Notch1-ΔE construct including cmyc (N1-ΔE), a substrate of γ-secretase that is independent of ligand activation, as described in Experimental Methods. […] Cell lysates were analyzed by performing SDS-PAGE and immunoblotting the result with anti-myc and SM320 antibody (FIG. 6A). […] N1-ΔE was detected only in cells transfected with this construct (FIG. 6A, upper panel, lanes 1 and 2) but not in the mock transfected cells (FIG. 6A, upper panel, lane 3).
# [2] = target: T2, M146L PS1 NTF (γ-secretase active site) (Homo sapiens, UniProt P49768, M146L); test: Photolabeling of PS1 NTF, N2a M146L PS1 membrane; format: binding, murine; conditions: probes 10 nM, 0.25% CHAPSO, normalized to JC8, excess L458 as competitor
# T2 construct: total membrane
# Description: (§1) Total cell membrane was pre-incubated in the presence of DMSO or 1 μM L458 in PIPES buffer containing 0.25% CHAPSO at 37° C. for 30 minutes. Then, photolabeling probes (JC8, L646 or GY4) (Li et al., 2000, Nature, 405:689-694, Chun et al., 2004, J Org. Chem., 69:7344-7347, Yang et al., 2009, Bioorg Med Chem. Lett., 19:922-925) at 10 nM were added and incubated for an additional 1 hour at 37° C. The reaction mixtures were irradiated at 350 nm for 45 minutes and solubilize with RIPA buffer. Biotinylated proteins in the soluble fraction were captured by Streptavidin resin (Pierce) overnight at 4° C. Bound proteins were eluted by boiling with SDS sample buffer and analyzed by western blotting with anti-PS1 NTF antibodies.
# (§2) L646, GY4 and JC8, which photolabel the S2, S1, and S1′ subsites within the active site of PS1, respectively, were used for this study (FIG. 10b). Membranes isolated from N2a cells stably expressing wild-type (WT), M146L, or E280A PS1 were photolabeled with JC8, GY4 or L646 in the presence of 0.25% CHAPSO. […] After […] irradiation, biotinylated proteins were isolated with streptavidin beads and analyzed by western blotting with anti-PS1 NTF antibodies. […] To eliminate the effect of various amounts of γ-secretase existing in different cell lines, we normalized each probe with JC8 labeling in the same cell lines.
# [3] = target: T3, E280A PS1 NTF (γ-secretase active site) (Homo sapiens, UniProt P49768, E280A); test: Photolabeling of PS1 NTF, N2a E280A PS1 membrane; format: binding, murine; conditions: probes 10 nM, 0.25% CHAPSO, normalized to JC8, excess L458 as competitor
# T3 construct: total membrane
# Description: as §1, §2
Photolabeling of PS1 NTF (western blot) [2],Photolabeling of PS1 NTF (western blot) [3],Structure (SMILES),detection of cleaved NICD band by SM320 (western blot) [1]
,,CC(NC(=O)Cc1cc(F)cc(F)c1)C(=O)NC1N=C(c2ccccc2)c2ccccc2N(C)C1=O (stereo not drawn) [Compound E],not in the Compound E-treated cells
completely prevented labeling,completely prevented labeling,CC(C)C[C@H](NC(=O)[C@H](Cc1ccccc1)C[C@@H](O)[C@H](Cc1ccccc1)NC(=O)OC(C)(C)C)C(=O)N[C@@H](Cc1ccccc1)C(N)=O [L458],
